From the COVID Moonshot data (paper PMC11187573), “Identification of SARS-CoV-2 Mpro inhibitors through deep reinforcement learning for de novo drug design and computational chemistry approaches” (RSC Medicinal Chemistry, 2024)

Key:
[1] = target: SARS-CoV-2 Main Protease (SARS-CoV-2) (UniProt P0DTD1)
[2] = target: SARS-CoV-2 Main Protease (SARS-CoV-2) (UniProt P0DTD1); remark: listed apart in the source
Procedure: Compounds were seeded into assay-ready plates (Greiner 384 low volume, cat 784900) using an Echo 555 acoustic dispenser, and DMSO was back-filled for a uniform concentration in assay plates (DMSO concentration maximum 1%) Screening assays were performed in duplicate at 20µM and 50µM. […] Dose response assays were performed in 12 point dilutions of 2-fold, typically beginning at 100µM. […] Reagents for Mpro assay were dispensed into the assay plate in 10µl volumes for a final volume of 20µL.
Mpro was pre-incubated for 15 minutes at room temperature with compound before addition of substrate and a further 30 minute incubation. Protease reaction was measured in a BMG Pherastar FS with a 480/520 ex/em filter set. Raw data was mapped and normalized to high (Protease with DMSO) and low (No Protease) controls using Genedata Screener software.

SMILES | inhibition ([1]; 20.0 µM) [%] | relative solubility at 20 uM | relative solubility at 100 uM | inhibition ([2]; 20.0 µM) [%] | inhibition ([2]; 50.0 µM) [%] | inhibition ([1]; 50.0 µM) [%] | IC50 [1] [µM] | IC50 [2] [µM]
C=CC(=O)N(c1ccc(C2CCOC2)cc1)C(C(=O)NC(C)(C)C)c1cccnc1 (stereo not given) | 0 | 1.01 | 1.01 | -11.9 | 4.28 | – | – | –
CC1(C)Cc2cccc(OCCNC(=O)c3cc(=O)[nH]c4ccc(Cl)cc34)c2O1 | – | 0.97 | 0.91 | 5.99 | 28.8 | 18.7 | – | –
C[C@H]1CN(Cc2ccccc2)CC[C@@H]1NC(=O)C(=O)NCc1ccccc1CN1CCCC[C@@H]1C (stereo in doubt) | – | 1 | 0.99 | -2.35 | 1.34 | 0 | – | –
O=C(Cc1c[nH]c2ncccc12)NCc1cccc(Cl)c1 | 1.98 | 1 | 0.96 | 7.73 | 9.03 | – | – | –
CC(NC(=O)Nc1cccc(N2CCCCC2=O)c1)c1ccn[nH]1 (stereo not given) | – | 1 | 1 | -8.95 | -2.76 | 0 | – | –
CCC(CC)C(=O)C(C#N)C(=O)Nc1ccc(F)cc1 (stereo not given) | 0 | 1 | 1 | – | -16.2 | 0 | – | –
O=C(CCl)Nc1cccc(-c2ccc3c(c2)CCCC3)c1 | – | 0.9 | 0.87 | 10.8 | 15.2 | 47.7 | – | –
CCOCC(=O)NCc1ccc(CNC(=O)Cn2nnc3ccccc32)cc1 | – | 0.99 | 1 | 1.82 | 1.31 | 0 | – | –
CC1(C)Cc2cccc(OCCNC(=O)c3cc(=O)[nH]c4ccc(F)cc34)c2O1 | – | 0.98 | 0.84 | 13.9 | 23.7 | 42 | – | –
C=CC(=O)N(c1cc(C(C)(C)C)on1)C(C(=O)NCCc1cccc(F)c1)c1cncc(Cl)c1 (stereo not given) | – | 0.97 | 0.56 | 15.8 | 40.2 | 100 | 4.78 | –
O=C(CCl)N1CCN(C2(c3cccc(Cl)c3)CC2)CC1 | – | 1.01 | 0.99 | 55.7 | 80.8 | 41.2 | – | 52.3
CN(CCNC(=O)c1cc(=O)[nH]c2ccccc12)c1ccccc1 | – | 0.91 | 0.77 | -2.32 | 19.2 | 8.3 | – | –
O=S1(=O)CCC(N2CCN(c3nc(-c4cccnc4)nc4ccccc34)CC2)C1 (stereo not given) | 0 | 1 | 0.94 | 13 | 14.1 | 0 | – | –
O=C(CSC1=NCCS1)c1cc(Cl)ccc1Cl | – | 0.77 | 0.64 | 5.24 | 2.86 | 44.8 | – | –
COCCc1ccc(Cl)cc1CN1CCN(C(=O)CCl)CC1 | – | 1 | 0.99 | 96.1 | 95.1 | 100 | 2.42 | –
CCC(=O)NCC[C@@H]1CCc2ccc3c(c21)CCO3 (stereo in doubt) | 0 | 1 | 1 | 0.473 | 6.69 | – | – | –
CS(=O)(=O)Nc1cccc(C(=O)Oc2cccc(N3CCCC3=O)c2)c1 | 0 | 0.99 | 0.86 | – | 35.7 | 11.2 | – | –
Cc1ccncc1NC(=O)CCc1ccc(F)cc1 | – | 1 | 1 | 1.95 | 5.92 | 6.51 | – | –
O=C1Nc2c(Br)cccc2C1=O | – | 0.99 | 0.81 | -4.89 | -4.45 | 67.4 | 43.1 | –
C=CC(=O)N(c1cc(C(C)(C)C)on1)C(C(=O)Nc1c(C)cccc1CC)c1cccnc1 (stereo not given) | 1.49 | 0.99 | 0.9 | 7.33 | 21.1 | – | – | –
Cc1ccncc1NC(=O)Cc1cncc(Cl)c1 | – | 1 | 1.01 | 28.8 | 46 | 71.4 | – | –
C=CC(=O)N(c1ccc2cc[nH]c2c1)C(C(=O)NC(C)(C)C)c1cccnc1 (stereo not given) | 0 | 0.84 | 0.93 | 5.38 | 10.5 | – | – | –
COc1ccccc1OCCNC(=O)c1cc(=O)[nH]c2ccc(Cl)cc12 | – | 0.93 | 0.66 | -2.31 | 34.1 | 23 | – | –
O=C(CC1(c2ccccc2)CCCC1)Nc1cccnc1 | 0 | 1 | 1 | – | 3.98 | 13.9 | – | –
O=S(=O)(CCc1ccccc1)Nc1cccnc1 | – | 0.98 | 0.99 | -0.803 | -32.5 | 17.2 | – | –
C=C(CN(C)C)C(=O)N1Cc2ccccc2C(c2ccccc2)C1 (stereo not given) | 0 | 1 | 0.97 | 0.735 | 10.3 | – | – | –
Cc1nnc(NC(=O)Nc2cccnc2)s1 | 4.62 | 1 | 0.99 | 1.19 | 7.32 | 8.86 | – | –
C=CC(=O)NCC(=O)N(CCN1CCOCC1)Cc1ccccc1Cl | 0 | 1 | 1 | -18.3 | -19.7 | 0 | – | –

SMILES | inhibition ([1]; 20.0 µM) [%] | relative solubility at 20 uM | relative solubility at 100 uM | inhibition ([2]; 20.0 µM) [%] | inhibition ([2]; 50.0 µM) [%] | inhibition ([1]; 50.0 µM) [%] | IC50 [1] [µM] | IC50 [2] [µM]
COC1(CC(=O)Nc2cnccc2C)CC1 | – | 1.01 | 1 | -5.47 | 13.8 | 0 | – | –
O=C(NCc1ccns1)Nc1cccc(CN2CCCC2=O)c1 | 0 | 1 | 0.97 | -0.28 | -2.05 | 0 | – | –
O=C(NCCN1CCN(C(=O)CCl)CC1)c1ccccc1 | 0.871 | 1 | 1.01 | 0.205 | 18.1 | – | – | –
C=CC(=O)N(c1ccc(C(C)(C)C)cc1)C(C(=O)NC(C)(C)C)c1cncc(OC)c1 (stereo not given) | 0.0741 | 1 | 0.99 | -13.4 | -6.87 | 8.47 | – | –
NS(=O)(=O)c1ccc(N2CCC(c3ccsc3)CC2)cc1 | 37.4 | 0.98 | 0.76 | 7.4 | 17.1 | 42 | – | –
COC(=O)C(Cc1ccccc1)C(C)NC(=O)C(C)n1ccnc1 (stereo not given) | 0 | 1 | 1 | – | 11.9 | 0 | – | –
CCOc1ccccc1/C=C1/C(=O)NC(=O)c2ccccc21 | – | 0.97 | 0.68 | -36.4 | 4.82 | 39.6 | – | –
Cc1ccncc1NC(=O)Nc1cncc(C#N)c1 | – | 1 | 1 | 3.67 | 3.96 | 15.5 | – | –
C=CC(=O)N(C1COC2(CCC2)C1)C(C(=O)NC(C)(C)C)c1cccnc1 (stereo not given) | 0 | 0.97 | 0.96 | 12.6 | 13.4 | – | – | –
C=CC(=O)N(c1cc(C)cc(N)c1)C(C(=O)NC(C)(C)C)c1cccnc1 (stereo not given) | 0 | 0.99 | 0.98 | -15.1 | -19.4 | 0 | – | –
C=CC(=O)N(c1ccc(C(C)(C)C)cc1)C(C(=O)NCC1CCOC1)c1cccnc1 (stereo not given) | 1.1 | 1 | 0.99 | 25.7 | 41.3 | 29.4 | – | –
C=CC(=O)N(c1ccc(C(C)(C)C)cc1)C(C(=O)NC1CC1)c1cccnc1 (stereo not given) | 8.67 | 1.01 | 1 | 25.4 | 33 | 33.3 | – | –
O=C(Nc1cccnc1)c1cc(Cl)ccc1O | 0 | 1 | 0.89 | 18.3 | 22.8 | – | – | –
O=C(CC(=O)N1CCOCC1)NC1CCCCC1 | 0 | 0.99 | 1 | 19.8 | 6.01 | 0 | – | –
C=CC(=O)N(c1ccc(C(C)(C)C)cc1)C(C(=O)NCCCOC)c1cccnc1 (stereo not given) | 12.2 | 0.99 | 0.98 | 3.35 | 19.4 | 39.5 | – | –
Cc1cc(-c2nc3ccccc3[nH]2)ccc1O | – | 0.99 | 1 | -10.3 | -36.8 | -3.73 | – | –
Cc1cc2c(cc1C)[C@H](C(=O)Nc1cncnc1-n1cccn1)CO2 (stereo in doubt) | – | 0.82 | 0.76 | -1.2 | -9.4 | 0 | – | –
COC(=O)C(c1ccccc1Cl)N1CCC2SC(=O)C=C2C1 (stereo not given) | – | 0.82 | 0.81 | -46.2 | -5.13 | 11.5 | – | –
Cc1noc(CC(NC(=O)C(C)Cn2ccnc2)c2ccccc2)n1 (stereo not given) | 0 | 1 | 1 | – | -2.38 | 0 | – | –
C#CCOc1ccc(N(C(=O)C=C)C(C(=O)NC(C)(C)C)c2cccnc2)cc1 (stereo not given) | 0 | 1 | 1 | -13.4 | -14.8 | – | – | –
CC1(C)CCCN1S(=O)(=O)c1ccc2c(c1)C(=O)C(=O)N2 | – | 0.94 | 0.89 | -5.91 | -10.7 | 0 | – | –
O=C(CCl)Nc1nc2c(S(=O)(=O)NCCc3ccccc3)cccc2s1 | – | 0.89 | 0.66 | 58 | 74.5 | 80.3 | 8.55 | 13.9
N#Cc1cc(CN2CCN(C(=O)CCl)CC2)c2ccccc2c1 | 97.6 | 0.85 | 0.79 | 83.6 | 93.1 | – | 1.16 | –
N#Cc1ccc(CNC(=O)Cc2c[nH]c3ncccc23)cc1 | 1.12 | 1 | 0.99 | 2.44 | 1.71 | – | – | –
C=CC(=O)N(c1ccc(C(C)(C)C)cc1)C(C(=O)Nc1ccc2c(c1)OCCO2)c1cccnc1 (stereo not given) | 7.68 | 0.98 | 0.75 | 2.83 | 18.1 | 30.8 | – | –
C=CC(=O)N(c1ccc(C(C)OC)cc1)C(C(=O)Nc1ccc(Cl)cc1)c1cccnc1 (stereo not given) | 0 | 0.84 | 0.76 | 12.3 | 26.1 | – | – | –
O=C1N(Cc2cccc(Cl)c2)CCN1c1nccc2n[nH]cc12 | – | 0.92 | 0.93 | 72.1 | 84.1 | 88.8 | 2.91 | –
